Experimental findings from patent publication US9486506B2 (Novo Nordisk A/S, priority 2011, dated 2016) are described below.

As usually defined, the EC50 is the concentration that produces a half-maximal response. Higher therefore signals a need for much substance.

The target of one data set is T1, glucagon receptor (Homo sapiens, UniProt P47871).
T1 construct: expressed in transfected cells
Briefly: Assay (I) Glucagon activity (cAMP biosensor, FLIPR). Type of data set: cell-based.

Data set [1] in a line: Assay (X) Chemical stability assessment by RP-UPLC. The note with it: pH 8.15, 14 days at 37° C. vs 5° C., 333 μM. Type of data set: physicochemical. As to the method:
Chemical Stability Assessment
Lyophilized samples were dissolved in buffer (see below for detailed compositions) to a final concentration of 333 μM and a pH of 8.15, and were incubated for 14 days at 5° C. and 37° C. followed by RP-UPLC analysis. Purity was defined as the area percentage of the main peak in relation to the total area of all integrated peaks in each chromatogram. Purity loss after 14 days at 37° C. was determined as the difference in purity between the samples incubated at 5° C. and 37° C., divided by the purity of the sample after incubation for 14 days at 5° C.
RP-UPLC analysis was performed using a Waters BEH130 2.1 mm×150 mm, 1.7 μm column operated at 50° C. and a flow rate of 0.4 mL/min using a mobile phase system consisting of typically A: 50 mM Phosphate, 10 w/w % Acetonitrile pH 3 and B: 80 v/v Acetonitrile. UV-detection was performed at 215 nm. The typical gradient profile used for most of the samples is shown below.
For some individual analogues eluting at substantially different retention times compared with the majority of analogues, some adjustments to the gradient profile were made to better enable purity assessment comparison across samples. Also the composition of the channel B mobile phase component was in some of the analyses exchanged for a 90 v/v % Acetonitrile solvent solution in an attempt to better handle carry-over of material from one injection to the next in the sequence. This was however compensated for by recalculating the gradient profile appropriately.
Buffer: • 50 mM Dinatriumphosphatdihydrat • 184 mM Propylenglycol • 58 mM Phenol • pH adjusted to 8.15 with H3PO4. In cases where pH was adjusted to 8.15 after re-suspension of analogues, 0.2 M NaOH was used. Assay (XI) Pharmacokinetic Study in Minipigs

Numbered stars: 1 amine (or outer) side, 2 acyl side, 3 side chain; on linkers, the order of the positions; unused ones are H or OH. Side chains are listed from the residue outwards. Peptide text beside a SMILES is read from it. * marks the point of attachment. C18 diacid = O=C(O)CCCCCCCCCCCCCCCCC(=O)*; γGlu = O=C(O)[C@H](CCC(=O)[*:2])N[*:1]; AEEA = NCCOCCOCC(=O)O

T1 sequence (P47871 26-477): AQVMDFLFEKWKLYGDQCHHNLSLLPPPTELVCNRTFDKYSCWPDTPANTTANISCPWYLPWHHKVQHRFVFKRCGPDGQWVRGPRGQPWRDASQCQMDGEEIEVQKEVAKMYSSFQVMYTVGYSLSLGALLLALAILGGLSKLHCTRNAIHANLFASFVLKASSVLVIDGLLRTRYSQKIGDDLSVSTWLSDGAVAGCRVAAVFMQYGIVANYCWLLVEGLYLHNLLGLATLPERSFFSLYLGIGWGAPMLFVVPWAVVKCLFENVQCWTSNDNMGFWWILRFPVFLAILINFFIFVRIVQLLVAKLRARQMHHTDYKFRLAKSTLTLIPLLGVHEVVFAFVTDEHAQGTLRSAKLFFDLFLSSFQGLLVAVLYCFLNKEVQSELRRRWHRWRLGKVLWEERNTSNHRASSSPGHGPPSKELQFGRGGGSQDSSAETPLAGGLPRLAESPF

On glucagon receptor, `CC(C)C[C@H](NC(=O)[C@H](Cc1c[nH]c2ccccc12)NC(=O)[C@H](CCCCNC(=O)CC[C@H](NC(=O)CC[C@H](NC(=O)COCCOCCNC(=O)COCCOCCNC(=O)CC[C@H](NC(=O)CCCCCCCCCCCCCCCCC(=O)O)C(=O)O)C(=O)O)C(=O)O)NC(=O)[C@@H](NC(=O)[C@H](Cc1ccccc1)NC(=O)[C@H](CC(=O)O)NC(=O)[C@H](CCC(N)=O)NC(=O)[C@H](C)NC(=O)[C@H](CCCNC(=N)N)NC(=O)[C@H](CCCNC(=N)N)NC(=O)[C@@H](NC(=O)[C@H](CC(=O)O)NC(=O)[C@H](CC(C)C)NC(=O)[C@H](Cc1ccc(O)cc1)NC(=O)[C@H](CCCNC(=N)N)NC(=O)[C@H](CO)NC(=O)[C@H](Cc1ccc(O)cc1)NC(=O)[C@H](CC(=O)O)NC(=O)[C@H](CO)NC(=O)[C@@H](NC(=O)[C@H](Cc1ccccc1)NC(=O)[C@@H](NC(=O)CNC(=O)[C@H](CCC(N)=O)NC(=O)[C@H](CO)NC(=O)[C@@H](N)Cc1c[nH]cn1)[C@@H](C)O)[C@@H](C)O)C(C)C)C(C)C)C(=O)N[C@@H](CC(C)C)C(=O)N[C@@H](CO)C(=O)N[C@H](C(=O)O)[C@@H](C)O` [Example 21, N^ε24-[(4S)-4-carboxy-4-[[(4S)-4-carboxy-4-[[2-[2-[2-[[2-[2-[2-[[(4S)-4-carboxy-4-(17-carboxyheptadecanoylamino)butanoyl]amino]ethoxy]ethoxy]acetyl]amino]ethoxy]ethoxy]acetyl]amino]butanoyl]amino]butanoyl]-[Arg^12,Val^16,Lys^24,Leu^27,Ser^28]-Glucagon] (H-HSQGTFTSDYSRYLDVRRAQDFVK([γGlu-γGlu-AEEA-AEEA-γGlu-C18 diacid])WLLST-OH) displayed an EC50 of 1.32 nM. In addition, the “Chemical stability [Purity loss/14 days 37 C.]” value in data set [1] worked out at 2.9%.
The corresponding values for `CC(C)C[C@H](NC(=O)[C@H](Cc1ccc(O)cc1)NC(=O)[C@H](CCCCN)NC(=O)[C@H](CO)NC(=O)[C@H](Cc1ccc(O)cc1)NC(=O)[C@H](CC(=O)O)NC(=O)[C@H](CO)NC(=O)[C@@H](NC(=O)[C@H](Cc1ccccc1)NC(=O)[C@@H](NC(=O)CNC(=O)[C@H](CCC(N)=O)NC(=O)[C@H](CO)NC(=O)[C@@H](N)Cc1c[nH]cn1)[C@@H](C)O)[C@@H](C)O)C(=O)N[C@@H](CC(=O)O)C(=O)N[C@@H](C)C(=O)N[C@@H](CCCNC(=N)N)C(=O)N[C@@H](CCCNC(=N)N)C(=O)N[C@@H](C)C(=O)N[C@@H](CCC(N)=O)C(=O)N[C@@H](CC(=O)O)C(=O)N[C@@H](Cc1ccccc1)C(=O)N[C@H](C(=O)N[C@@H](CCCCNC(=O)CC[C@H](NC(=O)CC[C@H](NC(=O)COCCOCCNC(=O)COCCOCCNC(=O)CC[C@H](NC(=O)CCCCCCCCCCCCCCCCC(=O)O)C(=O)O)C(=O)O)C(=O)O)C(=O)N[C@@H](Cc1c[nH]c2ccccc12)C(=O)N[C@@H](CC(C)C)C(=O)N[C@@H](CC(C)C)C(=O)N[C@@H](CO)C(=O)N[C@H](C(=O)O)[C@@H](C)O)C(C)C` [Example 43, N^ε24-[(4S)-4-carboxy-4-[[(4S)-4-carboxy-4-[[2-[2-[2-[[2-[2-[2-[[(4S)-4-carboxy-4-(17-carboxyheptadecanoylamino)butanoyl]amino]ethoxy]ethoxy]acetyl]amino]ethoxy]ethoxy]acetyl]amino]butanoyl]amino]butanoyl]-[Ala16,Lys24,Leu27,Ser28]-Glucagon] are 0.049 nM and 7.6%.
The corresponding values for `CC(C)C[C@H](NC(=O)[C@H](Cc1ccc(O)cc1)NC(=O)[C@H](CCCCN)NC(=O)[C@H](CO)NC(=O)[C@H](Cc1ccc(O)cc1)NC(=O)[C@H](CC(=O)O)NC(=O)[C@H](CO)NC(=O)[C@@H](NC(=O)[C@H](Cc1ccccc1)NC(=O)[C@@H](NC(=O)CNC(=O)[C@H](CCC(N)=O)NC(=O)[C@H](CO)NC(=O)[C@@H](N)Cc1c[nH]cn1)[C@@H](C)O)[C@@H](C)O)C(=O)N[C@@H](CC(=O)O)C(=O)N[C@@H](C)C(=O)N[C@@H](CCCNC(=N)N)C(=O)N[C@@H](CCCNC(=N)N)C(=O)N[C@@H](C)C(=O)N[C@@H](CCC(N)=O)C(=O)N[C@@H](CC(=O)O)C(=O)N[C@@H](Cc1ccccc1)C(=O)N[C@H](C(=O)N[C@@H](CCCCNC(=O)CC[C@H](NC(=O)CC[C@H](NC(=O)COCCOCCNC(=O)COCCOCCNC(=O)CC[C@H](NC(=O)CCCCCCCCCCCCCCC(=O)O)C(=O)O)C(=O)O)C(=O)O)C(=O)N[C@@H](Cc1c[nH]c2ccccc12)C(=O)N[C@@H](CC(C)C)C(=O)N[C@@H](CC(C)C)C(=O)N[C@@H](CO)C(=O)N[C@H](C(=O)O)[C@@H](C)O)C(C)C` [Example 83, N^ε24-[(4S)-4-carboxy-4-[[(4S)-4-carboxy-4-[[2-[2-[2-[[2-[2-[2-[[(4S)-4-carboxy-4-(15-carboxypentadecanoylamino)butanoyl]amino]ethoxy]ethoxy]acetyl]amino]ethoxy]ethoxy]acetyl]amino]butanoyl]amino]butanoyl]-[Ala16,Lys24,Leu27,Ser28]-Glucagon] are 0.016 nM and 10.3%.
Take `CC(C)C[C@H](NC(=O)[C@H](Cc1c[nH]c2ccccc12)NC(=O)[C@H](CCCCNC(=O)COCCOCCNC(=O)COCCOCCNC(=O)CC[C@H](NC(=O)CC[C@H](NC(=O)CC[C@H](NC(=O)CCCCCCCCCCCCCCCCC(=O)O)C(=O)O)C(=O)O)C(=O)O)NC(=O)[C@@H](NC(=O)[C@H](Cc1ccccc1)NC(=O)[C@H](CCC(=O)O)NC(=O)[C@H](CCC(N)=O)NC(=O)[C@H](C)NC(=O)[C@H](CCCNC(=N)N)NC(=O)[C@H](CCCNC(=N)N)NC(=O)[C@@H](NC(=O)[C@H](CC(=O)O)NC(=O)[C@H](CC(C)C)NC(=O)[C@H](Cc1ccc(O)cc1)NC(=O)[C@H](CCCCN)NC(=O)[C@H](CO)NC(=O)[C@@H](NC(=O)[C@H](CC(=O)O)NC(=O)[C@H](CO)NC(=O)[C@@H](NC(=O)[C@H](Cc1ccccc1)NC(=O)[C@@H](NC(=O)CNC(=O)[C@H](CCC(N)=O)NC(=O)[C@H](CO)NC(=O)[C@@H](N)Cc1c[nH]cn1)[C@@H](C)O)[C@@H](C)O)C(C)C)[C@@H](C)O)C(C)C)C(=O)N[C@@H](CC(C)C)C(=O)N[C@@H](CO)C(=O)N[C@H](C(=O)O)[C@@H](C)O` [Example 62, N^ε24-[2-[2-[2-[[2-[2-[2-[[(4S)-4-carboxy-4-[[(4S)-4-carboxy-4-[[(4S)-4-carboxy-4-(17-carboxyheptadecanoylamino)butanoyl]amino]butanoyl]amino]butanoyl]amino]ethoxy]ethoxy]acetyl]amino]ethoxy]ethoxy]acetyl]-[Val10,Thr16,Glu21,Lys24,Leu27,Ser28]-Glucagon] (H-HSQGTFTSDVSKYLDTRRAQEFVK([AEEA-AEEA-γGlu-γGlu-γGlu-C18 diacid])WLLST-OH): the EC50 at glucagon receptor amounted to 0.08 nM. Further, the “Chemical stability [Purity loss/14 days 37 C.]” value in data set [1] is 5.6%.
The molecule `CC(C)C[C@H](NC(=O)[C@H](Cc1c[nH]c2ccccc12)NC(=O)[C@H](CCCCNC(=O)CC[C@H](NC(=O)CC[C@H](NC(=O)COCCOCCNC(=O)COCCOCCNC(=O)CC[C@H](NC(=O)CCCCCCCCCCCCCCCCC(=O)O)C(=O)O)C(=O)O)C(=O)O)NC(=O)[C@@H](NC(=O)[C@H](Cc1ccccc1)NC(=O)[C@H](CC(=O)O)NC(=O)[C@H](CCC(N)=O)NC(=O)[C@H](C)NC(=O)[C@H](CCCNC(=N)N)NC(=O)[C@H](CCCNC(=N)N)NC(=O)[C@@H](NC(=O)[C@H](CCC(=O)O)NC(=O)[C@H](CC(C)C)NC(=O)[C@H](Cc1ccc(O)cc1)NC(=O)[C@H](CCCCN)NC(=O)[C@H](CO)NC(=O)[C@H](Cc1ccc(O)cc1)NC(=O)[C@H](CC(=O)O)NC(=O)[C@H](CO)NC(=O)[C@@H](NC(=O)[C@H](Cc1ccccc1)NC(=O)[C@@H](NC(=O)CNC(=O)[C@H](Cc1c[nH]cn1)NC(=O)[C@H](CO)NC(=O)[C@@H](N)Cc1c[nH]cn1)[C@@H](C)O)[C@@H](C)O)[C@@H](C)O)C(C)C)C(=O)N[C@@H](CC(C)C)C(=O)N[C@@H](CC(N)=O)C(=O)N[C@H](C(=O)O)[C@@H](C)O` [Example 9, N^ε24-[(4S)-4-carboxy-4-[[(4S)-4-carboxy-4-[[2-[2-[2-[[2-[2-[2-[[(4S)-4-carboxy-4-(17-carboxyheptadecanoylamino)butanoyl]amino]ethoxy]ethoxy]acetyl]amino]ethoxy]ethoxy]acetyl]amino]butanoyl]amino]butanoyl]-[His^3,Glu^15,Thr^16,Lys^24,Leu^27]-Glucagon] (H-HSHGTFTSDYSKYLETRRAQDFVK([γGlu-γGlu-AEEA-AEEA-γGlu-C18 diacid])WLLNT-OH) yielded an EC50 on glucagon receptor of 0.036 nM. The “Chemical stability [Purity loss/14 days 37 C.]” value in data set [1] amounted to 10%.
